Measured values taken from patent US10611727B2, “1-[1-(benzoyl)-pyrrolidine-2-carbonyl]-pyrrolidine-2-carbonitrile derivatives” (UNIVERSITAT DE BARCELONA, priority 2012, dated 2020).

How the values were obtained:
[1] = Parallel artificial membrane permeability assay (PAMPA), porcine polar brain lipid extract; format: in vitro ADME; settings: 200 μM, pH 7.4, 4 hours
Experimental: Parallel artificial membrane permeability assay (PAMPA) described in Kansy M et al., J. Med. Chem. 1998; […]:1007-10 was used to determine the capacity of compounds to cross the Blood-Brain Barrier (BBB) by passive diffusion (Di L et al., Eur. J. Med. Chem. 2003; 38(3):223-32). The effective permeability (Pe) of the compounds was measured at an initial concentration of 200 μM. The buffer solution was prepared from a commercial concentrated one following the manufacturer's instructions. pH was adjusted to 7.4 using a 0.5 M NaOH solution. A stock solution of new compound was prepared in DMSO and diluted with buffer solution to a final 200 μM concentration (0.5% DMSO content). The PAMPA sandwich was separated and each donor well was filled with 200 μL of the compound solution. […] After 4 hours, the contents of the acceptor and donor compartments were analyzed by HPLC: 150 μL of each well from the donor plate and 150 μL of each well from the acceptor plate were transferred to HPLC vials, injecting each sample into a reverse-phase C18 column (150 mm×4.6 mm×5 μm, 100 Å) (100 μL/injection from the acceptor wells, 10 μL/injection from the donor wells and for t0 references). […]
The effective permeability (Pe) after 4 hours was calculated using equation 2 and the percentage of transport was calculated using equation 3: […]

[2] = test system: MK-801-induced memory impairment; assay: Passive avoidance task, MK-801 cognition impairment model; format: in vivo, rodents (mice or rats); settings: s.c. 35 min before shock session; MK-801 i.p. 15 min later; FIG. 2
Experimental: The new compounds were evaluated for their efficacy as cognition enhancers in a pharmacological model for cognitive impairment. The effects of the new compounds were evaluated in untreated and MK-801-treated rodents (mice or rats). MK-801 is a non-competitive antagonist of the N-Methyl-D-aspartate (NMDA) receptor which impairs animal performance in various learning and memory paradigms (Castellano C et al., Curr. Drug Targets 2001; 2:273-83; Riedel G et al., Behav. Brain Res. 2003; 140:1-47). MK-801 also produces various effects on rodent behavior, including deficits in sensory processing, hypermotility, stereotypy and ataxia. […]
For the evaluation of the passive avoidance task, a two-compartment box with a light compartment and a dark compartment of the same dimensions was used. […] In the evaluation session, the time which the animal takes to enter the dark compartment (in seconds) was measured, as a sign of memory retention of the shock received in the dark compartment during the previous session. […] The corresponding evaluated compound was injected s.c. 35 min before the shock session, followed 15 minutes later by i.p. injection of MK-801, or PBS in the case of the control, in the same doses and volume as described for the object recognition test.

[3] = target: human prolyl oligopeptidase (Homo sapiens (Human), UniProt P48147); assay: POP inhibition assay (Z-G-P-AMC substrate, fluorimetric); format: biochemical; settings: 100 mM Na/K phosphate buffer pH 8.0, hPOP 20 to 60 nM
Chain of human prolyl oligopeptidase (P48147 whole entry): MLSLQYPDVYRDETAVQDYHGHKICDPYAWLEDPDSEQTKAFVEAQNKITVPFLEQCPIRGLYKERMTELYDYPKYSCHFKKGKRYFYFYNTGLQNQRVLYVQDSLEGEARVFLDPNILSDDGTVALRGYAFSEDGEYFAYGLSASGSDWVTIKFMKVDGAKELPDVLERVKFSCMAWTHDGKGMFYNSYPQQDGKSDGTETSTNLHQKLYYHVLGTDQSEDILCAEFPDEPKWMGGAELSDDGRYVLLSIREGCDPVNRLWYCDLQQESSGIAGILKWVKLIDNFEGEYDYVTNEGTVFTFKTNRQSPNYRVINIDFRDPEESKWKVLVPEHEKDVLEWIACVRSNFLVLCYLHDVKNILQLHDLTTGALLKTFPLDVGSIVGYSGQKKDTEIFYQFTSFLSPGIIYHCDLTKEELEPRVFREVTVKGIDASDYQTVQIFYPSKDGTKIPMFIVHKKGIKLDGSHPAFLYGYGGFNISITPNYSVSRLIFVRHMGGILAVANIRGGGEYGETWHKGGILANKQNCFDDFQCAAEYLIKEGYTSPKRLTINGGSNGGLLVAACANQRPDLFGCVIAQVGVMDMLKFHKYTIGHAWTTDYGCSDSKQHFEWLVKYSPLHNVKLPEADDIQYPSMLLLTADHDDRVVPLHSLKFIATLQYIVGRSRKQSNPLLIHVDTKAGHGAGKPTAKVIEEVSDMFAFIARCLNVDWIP
Experimental: hPOP expression: E. coli BL21 competent cells were transformed with pETM10 hPOP. To induce expression, a pre-culture of LB medium (50 mL) containing kanamycin (50 μg/mL) was inoculated with one colony and was grown overnight at 37° C., Next day, two cultures of LB medium (500 ml) were inoculated with the overnight culture (10 mL). The inoculated cultures were grown at 37° C. and 220 rpm until the OD595 was 1.2 (2.5-3 hours). […] The column was washed with suspension buffer until the absorbance at 280 nm returned to basal level. […] POP activity was checked in all fractions and positive ones were analyzed by SDS-PAGE and stained with Biosafe Comassie Stain G-250. […] Recombinant hPOP was quantified with the Bio-Rad Protein Assay with BSA as standard, Aliquots of the recombinant enzyme were prepared and immediately frozen with liquid nitrogen and stored at −80° C.
POP activity was determined following the method described by Toide et al (Toide K et al., J. Pharmacol. Exp. Ther. 1995; 274:1370-8), using Z-G-P-AMC (N-benzyloxycarbonyl-Gly-Pro-methylcoumarinyl-7-amide) as POP substrate. […]
After preincubation, Z-G-P-AMC (10 μl, 3 mM in 40% 1,4-dioxane) was added (3 μL 1.5 mM in 40% of 1,4-dioxane, in Conditions B), and the reaction was incubated for 1 hour at 37° C. The reaction was stopped by adding sodium acetate (150 μl, 1 M, pH 4) and the formation of AMC was measured fluorimetrically. […]

COc1cc(C(=O)N2C[C@H](OC)C[C@H]2C(=O)N2CCC[C@H]2C#N)cc(OC)c1OCc1ccccc1 [Example 1, (S)-1-((2S,4R)-1-(4-(benzyloxy)-3,5-dimethoxybenzoyl)-4-methoxypyrrolidine-2-carbonyl)pyrrolidine-2-carbonitrile]
% T (percentage of transport) [1]: 4.3%

COc1cc(C(=O)N2CC(F)(F)C[C@H]2C(=O)N2CCC[C@H]2C#N)cc(OC)c1OCc1ccccc1 [Example 4, (S)-1-((2S)-1-(4-(benzyloxy)-3,5-dimethoxybenzoyl)-4,4-difluoropyrrolidine-2-carbonyl)pyrrolidine-2-carbonitrile]
Reversal of MK-801-induced memory impairment in the passive avoidance test [2]: able to reverse MK-801-induced memory Impairment

COc1cc(C(=O)N2CC(F)(F)C[C@H]2C(=O)N2CCC[C@H]2C#N)cc(OCc2ccccc2)c1OCc1ccccc1 [Example 13, (S)-1-((2S)-1-(3,4-dibenzyloxy-5-methoxybenzoyl)-4,4-difluoropyrrolidine-2-carbonyl)pyrrolidine-2-carbonitrile]
IC50 [3]: 336 nM
